The record followed here is patent publication US11608309B2 (THE RESEARCH FOUNDATION FOR THE STATE UNIVERSITY OF NEW YORK, priority 2009, dated 2023).

One series has as its target purified human PMN MMP-8 (Homo sapiens (Human), UniProt P22894). The series is described as follows: MMP-8 inhibition in vitro, synthetic octapeptide substrate, tripeptide products by HPLC. It counts as biochemical.
Series [1] can be described thus: Solubility in aqueous solutions. It counts as physicochemical.
Series [2] has as its system PC-3 human prostate cancer cells. The series is described as follows: MMP-9 in conditioned media of PC-3 cells (gelatin zymography, Western blot). It counts as cell-based. The settings on record: 10 μM and 20 μM, 48 hr. The method, then: Compound 1 was evaluated in a cell culture model of cancer. […] After the incubation, aliquots of the conditioned media were assayed for MMP-9 (gelatinase B) by either of two techniques, gelatin zymoyraphy (in the presence of 2 or 10 mMCa^++) and Western blot (both assays used purified MMP-9, 92 kDa gelatinase, as a standard).
(In western blotting, separated proteins are transferred to a membrane and probed.)

Series [3] deals with neonatal rat ventricular myocytes. The series is described as follows: Doxorubicin mediated caspase-3 activity. It counts as cell-based. The settings on record: doxorubicin 500 nM, 6 h and 24 h, compounds 10 μM. The method, then:
Neonatal rat ventricular myocytes, serum starved for 24 h, were treated with the inhibitors 1 h prior to the addition of 500 nM of doxorubicin (Sigma). At the indicated time points cells were washed with ice-cold phosphate buffered saline and lysed using RIPA buffer (Pierce) containing protease and phosphatase inhibitors (Sigma). Caspase-3 activity in the cell lysates was measured by incubation with 7-amino-4-trifluoromethyl coumarin (Enzo).

Another series concerns the target IL-1β (Rattus norvegicus (Rat), UniProt Q63264). The series is described as follows: Gingiva IL-1β by ELISA in diabetic rats. It counts as in vivo. The settings on record: lower oral dose (100 mg/kg), 3 weeks. On the procedure:
(§1) At the end of the treatment protocol, the rats were sacrificed, blood samples were collected, and whole skin (except over limbs) and gingiva were dissected (the skin, because of ample quantities of tissue were analyzed for each rat separately; the gingiva, because of the tiny amounts that could be harvested per rat, were pooled for each experimental group, as prescribed previously for tetracycline studies (30). In addition, the jaw bones were collected, defleshed, and bone loss around the teeth analyzed morphometrically as described previously (42, 43).
(In an ELISA, binding on a coated surface is turned into a signal by an enzyme label.)

A short description of series [4]: Diabetic adverse events in rats. It counts as in vivo, rat. The settings on record: 1-week oral treatment, n = 6.
The subject of series [5] is LPS-challenged human monocytes. The series is described as follows: Cytokine and growth factor levels in LPS-challenged human monocytes (Luminex multiplex). It counts as cell-based. The note with it: 2 μM. On the procedure: The cytokine levels were measured by Luminex multiplex, a method that allows the simultaneous measurement of different biological markers.
In series [6] the target is MMP-9 (human leukocyte gelatinase) (Homo sapiens (Human), UniProt P14780). The series is described as follows: MMP-9 inhibition in vitro, octapeptide/HPLC. It counts as biochemical.
Series [7] is described as follows: Alveolar bone loss in diabetic rats. It counts as in vivo, rat. The note with it: very high oral dose (500 mg/kg), 3 weeks. On the procedure:
as §1
Alveolar bone loss (the signature pathologic event in inflammatory periodontal disease) was assessed in the defleshed jaws of the compound 1-treated (TX) and untreated rats. Briefly, little or no difference in bone loss was seen comparing the untreated non-diabetic and untreated diabetic rat jaws (enhanced bone loss has been observed in diabetic rats previously when the duration of the hyperglycemia was greater than the 3-week experiment described herein).

The nature of series [8]: Hyperglycemia in streptozotocin-diabetic rats, 1-week oral treatment. It counts as in vivo, rat. The settings on record: 100 mg/kg oral once/day for 7 days. An excerpt:
The purpose of the following was to establish an in vivo model of excessive collagen degradation to be used to test efficacy of the compounds of the subject invention. Male Sprague-Dawley rats (typically 300-400 gms of body weight), specific viral antibody free, were ordered from Charles River. Following general anesthesia via isoflurane anesthetic inhalation, diabetes was induced by an I.V. administration of streptozotocin (STZ) (50* mg/kg body weight) (Sigma Chemical Co., St Louis, Mo., USA) diluted in 0.9% citrated saline (pH 4.5), after 12 hours of fasting. After the streptozotocin injection, the animals were given free access to water and food. […] In this test, the test-paper color changes to dark brown which indicates glycosuria.
The latter assays were carried out using Western blot analysis with monoclonal antibodies to MMP-8.

For another series, the system named is human monocytes. The series is described as follows: Cytotoxicity in human monocytes (MTS). It counts as cell-based. The method, then: Briefly, human peripheral blood monocytes (HMs) were isolated from a leukocyte concentrate by density gradient centrifugation (Lymphoprep) and the isolated HMs cultured (2 h, 37° C.) to remove non-adherant cells. […] After incubation, the proinflammatory cytokines, TNFα, IL-1β, MCP-1 and IL-6 were measured in the conditioned media by ELISA and cytotoxicity was assessed by measuring the absorbance (490 ran) of formazan produced by reduction of MTS. The HMs alone ±0.1-0.5% DMSO produced minimal levels of these pro-inflammatory cytokines. However, addition of 100 ng/ml or 10 μg/ml of LPS both dramatically stimulated cytokine production.

For the next series, the target named is MMP-2 (Rattus norvegicus (Rat), UniProt P33436). The series is described as follows: Skin MMP-2 by ELISA in diabetic rats. It counts as in vivo. The settings on record: both low and high doses. The method, then:
as §1

Series [9] relates to neonatal rat ventricular myocytes. The series is described as follows: Hydrogen peroxide induced LDH release. It counts as cell-based. The settings on record: H2O2 100 μM, compound 10 μM. On the procedure:
Neonatal rat ventricular myocytes, serum starved for 24 h, were treated with the inhibitors 1 h prior to the addition of 100 μM of hydrogen peroxide (Sigma). LDH release in the conditioned media was quantified using CytoTox-ONE Homogeneous Membrane Integrity Assay reagent (Promega) at the indicated time points.
For orientation: Release of lactate dehydrogenase indicates damage to the cell membrane.

Another series deals with TNF-α. The series is described as follows: TNF-α production by LPS-stimulated human monocytes (ELISA). It counts as cell-based. The note with it: 10 and 20 μM. On the procedure: Briefly, human peripheral blood monocytes (HMs) were isolated from a leukocyte concentrate by density gradient centrifugation (Lymphoprep) and the isolated HMs cultured (2 h, 37° C.) to remove non-adherant cells. The adherent HMs were cultured for 18 h (1×10^6 cells/well, 24-well plates)±endotoxin (LPS)±different compounds dissolved in DMSO (the final concentration of DMSO in the RPMI serum-free culture media with Pen./Strep, antibiotics was no greater than 0.5%). After incubation, the proinflammatory cytokines, TNFα, IL-1β, MCP-1 and IL-6 were measured in the conditioned media by ELISA and cytotoxicity was assessed by measuring the absorbance (490 ran) of formazan produced by reduction of MTS. The HMs alone ±0.1-0.5% DMSO produced minimal levels of these pro-inflammatory cytokines. However, addition of 100 ng/ml or 10 μg/ml of LPS both dramatically stimulated cytokine production.

Several values for one entry are separate records, joined by “and”; a condition that tells them apart may be missing. Equal values may be shown once.

Sequence of purified human PMN MMP-8 (P22894 101-467): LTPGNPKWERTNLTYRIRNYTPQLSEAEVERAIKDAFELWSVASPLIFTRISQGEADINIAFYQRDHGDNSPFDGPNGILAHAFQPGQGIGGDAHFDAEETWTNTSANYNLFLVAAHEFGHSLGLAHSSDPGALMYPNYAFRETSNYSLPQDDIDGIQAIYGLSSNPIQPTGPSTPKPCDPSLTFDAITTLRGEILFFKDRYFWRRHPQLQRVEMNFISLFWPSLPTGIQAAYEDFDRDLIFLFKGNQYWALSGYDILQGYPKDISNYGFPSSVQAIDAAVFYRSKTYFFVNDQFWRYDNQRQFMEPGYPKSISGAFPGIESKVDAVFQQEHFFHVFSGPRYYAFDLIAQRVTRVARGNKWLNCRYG
Sequence of MMP-9 (human leukocyte gelatinase) (P14780 94-707): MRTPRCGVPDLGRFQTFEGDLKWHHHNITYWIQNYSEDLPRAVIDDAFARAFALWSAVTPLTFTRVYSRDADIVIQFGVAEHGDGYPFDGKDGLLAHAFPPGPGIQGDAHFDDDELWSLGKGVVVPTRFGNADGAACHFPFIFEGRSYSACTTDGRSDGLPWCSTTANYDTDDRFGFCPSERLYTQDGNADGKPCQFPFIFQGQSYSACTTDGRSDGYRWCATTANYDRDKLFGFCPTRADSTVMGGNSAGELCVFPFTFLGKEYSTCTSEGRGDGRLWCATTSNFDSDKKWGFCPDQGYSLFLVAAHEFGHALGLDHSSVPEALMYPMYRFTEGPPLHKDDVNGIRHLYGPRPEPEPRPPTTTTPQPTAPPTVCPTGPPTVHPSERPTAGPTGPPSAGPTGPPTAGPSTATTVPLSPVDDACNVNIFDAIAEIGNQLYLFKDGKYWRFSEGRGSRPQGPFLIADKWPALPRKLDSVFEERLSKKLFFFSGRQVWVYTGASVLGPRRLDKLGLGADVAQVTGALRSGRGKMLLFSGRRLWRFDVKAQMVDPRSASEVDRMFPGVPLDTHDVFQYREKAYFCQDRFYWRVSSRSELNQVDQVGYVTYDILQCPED

One may read the IC50 as the concentration needed to halve the response being measured. As to `c1cnc2c(c1)ccc1cccnc12` [1,10-phenanthroline, 1,10-O-phenanthroline], the IC50 at purified human PMN MMP-8 (read-out: IC50 against purified hMMP-8) is 10 µM and 35 µM.

`COC(=O)C(C(=O)/C=C/c1ccc(O)c(OC)c1)C(=O)/C=C/c1ccc(O)c(OC)c1` [Compound 1, 1,7-Bis(4-hydroxy-3-methoxyphenyl)-4-methoxycarbonylhepta-1E,6E-dien-3,5-dione]: the Solubility entry in [1] is listed as “more soluble than the insoluble natural product curcumin”. For the same molecule, the “Production and/or activity of MMP-9” value in series [2] is “inhibited the production and/or activity of MMP-9”. In addition, in series [3], the “Modulation of doxorubicin mediated caspase-3 activity” value is listed as “None of the MMP inhibitors, including compound 1, negatively modulate caspase-3 activity”. The “Reduction of IL-1β in gingiva vs untreated diabetic” value on IL-1β is “about 18%”. In addition, in series [4], the “Description of AEs” value is “Minor inflamed sclera” and the “Incidence of Adverse Events (AEs)” value is recorded as 1/6. The “Reduction of MCP-1, TNFα and VEGF levels” value in series [5] was “potent in reducing”. The IC50 in series [6] fell in the range of 6 to 17 µM. In [7], the “Reduction in alveolar bone loss vs untreated groups” value was “less effective”. The “Effect on severity of hyperglycemia (serum glucose)” value in [8] is given as “no effect”. For the same molecule, in the series on human monocytes (2 uM), the “Cytotoxicity Monocytes @ 5 h incubation” value came out at 2 uM- 0%. Also, the “Cytotoxicity Monocytes @ 5 h incubation” value in the series on human monocytes (10 uM) amounted to 10 uM- 0%. Also, the “Reduction of elevated MMP-2 level in skin” value at MMP-2 is recorded as 28%. For the same molecule, the “Effect on LDH release” value in series [9] (24 h) is “less dramatic effect”.

`COC(=O)C(C(=O)/C=C/c1ccc(O)cc1)C(=O)/C=C/c1ccc(O)cc1` [Compound 3, 1,7-Bis(4-hydroxyphenyl)-4-methoxycarbonylhepta-1E,6E-dien-3,5-dione]: the Solubility result in series [1] is “more soluble in aqueous solutions than compound 1”. Besides, the “IC50 collagenase (MMP-8) activity” value at purified human PMN MMP-8 (Example 7 experiment, 37° C., 1 mM Ca++) is on record as “more potent as a collagenase or MMP inhibitor than compound 1”. The IC50 in [6] lay within 6 to 17 µM.

In the case of `COc1cc(/C=C/C(=O)CC(=O)/C=C/c2ccc(N(C)C)cc2)ccc1O` [Compound 4], the 50% inhibitory concentration (IC50) in series [6] was 6 to 17 µM.

Regarding `COc1cc(/C=C/C(=O)CC(=O)/C=C/c2ccc(O)c(OC)c2)ccc1O` [Curcumin, diferuloylmethane], the Solubility entry in series [1] is reported as “insoluble”. Besides, the “Effect on TNFα production by endotoxin-stimulated human monocytes” value with TNF-α is on record as “no effect”. Further, the “Cytotoxicity Monocytes @ 5 h incubation” value in the series with human monocytes (10 uM) was found to be 10 uM- 0%. In addition, the “Cytotoxicity Monocytes @ 18 h incubation” value in the series with human monocytes (10 uM, 18 h) is given as 10 uM- 0%. For the same molecule, in the series on human monocytes (50 and 100 μM, some precipitation in cell culture), the “Cytotoxicity associated with TNFα inhibitory effect” value was “significant cytotoxicity”.

Consider `CNC(=O)[C@H](Cc1c[nH]c2ccccc12)NC(=O)[C@@H](CC(=O)NO)CC(C)C` [GM-6001], for which the “Effect on LDH release” value in series [9] is given as “did not affect LDH release”.

Consider `CCOCOC[C@H](C[C@H](C)C(=O)NO)NC(=O)c1ccc(Oc2ccccc2)cc1` [ONO-4817], for which the “Effect on LDH release” value in series [9] was “did not affect LDH release”.
